These results are taken from patent publication US12391683B2, “Therapeutic compounds and methods” (Actio Biosciences, Inc., priority 2022, dated 2025).

SMILES strings stand for the structures. Bounds are passed on as bounds.

The target of data set [1] is T1, TRPV1 channels (Homo sapiens, UniProt Q8NER1).
T1 construct: expressed in transfected cells; host or cells: HEK293
Nature of the data set: TRP Family FLIPR Assay, TRPV1. It counts as cell-based. As to conditions: HEK293 cells. As for the experimental part: (§1) The compound of Example 5 was tested for selectivity against a panel of Human TRP family ion channels in a TRP Family FLIPR Assay as described below. • 1. TRPC3 channels (human TRPC3 variant 1 gene, expressed in HEK293 cells). • 2. TRPC4 channels (human TRPC4 gene, expressed in HEK293 cells). • 3. TRPC5 channels (human TRPC5 gene, expressed in HEK293 cells). • 4. TRPC6 channels (human TRPC6 gene, expressed in HEK293 cells). • 5. TRPM2 channels (human TRPM2 gene, transiently expressed in HEK293 cells). • 6. TRPM3 channels (human TRPM3 gene, transiently expressed in HEK293 cells). • 7. TRPM4 channels (human TRPM4 gene, expressed in CHO cells). • 8. […]
(§2) Data acquisition was performed via the FLIPR Control software supplied with the FLIPR System (MDS-AT) and data was analyzed using Microsoft Excel (Microsoft Corp., Redmond, WA) or GraphPad Prism. […]
(§3) [formula] where Base is the response at low concentrations of test article, Max is the maximum response at high concentrations, xhalf the EC50, or IC50, the concentration of test article producing either half-maximal activation or inhibition, and rate is the Hill coefficient. […] No assumptions about the fit parameters was made; the fit parameters were determined by the algorithm.
(§4) The effect of each test article was evaluated at eight (8) concentrations: 0.003, 0.01, 0.03, 0.1, 0.3, 1, 3 and 10 μM, n≤4 wells/concentration). […]

Data set [2] deals with T2, TRPC4 channels (Homo sapiens, UniProt Q9UBN4).
T2 construct: expressed in transfected cells; host or cells: HEK293
T2 sequence (Q9UBN4 1-977): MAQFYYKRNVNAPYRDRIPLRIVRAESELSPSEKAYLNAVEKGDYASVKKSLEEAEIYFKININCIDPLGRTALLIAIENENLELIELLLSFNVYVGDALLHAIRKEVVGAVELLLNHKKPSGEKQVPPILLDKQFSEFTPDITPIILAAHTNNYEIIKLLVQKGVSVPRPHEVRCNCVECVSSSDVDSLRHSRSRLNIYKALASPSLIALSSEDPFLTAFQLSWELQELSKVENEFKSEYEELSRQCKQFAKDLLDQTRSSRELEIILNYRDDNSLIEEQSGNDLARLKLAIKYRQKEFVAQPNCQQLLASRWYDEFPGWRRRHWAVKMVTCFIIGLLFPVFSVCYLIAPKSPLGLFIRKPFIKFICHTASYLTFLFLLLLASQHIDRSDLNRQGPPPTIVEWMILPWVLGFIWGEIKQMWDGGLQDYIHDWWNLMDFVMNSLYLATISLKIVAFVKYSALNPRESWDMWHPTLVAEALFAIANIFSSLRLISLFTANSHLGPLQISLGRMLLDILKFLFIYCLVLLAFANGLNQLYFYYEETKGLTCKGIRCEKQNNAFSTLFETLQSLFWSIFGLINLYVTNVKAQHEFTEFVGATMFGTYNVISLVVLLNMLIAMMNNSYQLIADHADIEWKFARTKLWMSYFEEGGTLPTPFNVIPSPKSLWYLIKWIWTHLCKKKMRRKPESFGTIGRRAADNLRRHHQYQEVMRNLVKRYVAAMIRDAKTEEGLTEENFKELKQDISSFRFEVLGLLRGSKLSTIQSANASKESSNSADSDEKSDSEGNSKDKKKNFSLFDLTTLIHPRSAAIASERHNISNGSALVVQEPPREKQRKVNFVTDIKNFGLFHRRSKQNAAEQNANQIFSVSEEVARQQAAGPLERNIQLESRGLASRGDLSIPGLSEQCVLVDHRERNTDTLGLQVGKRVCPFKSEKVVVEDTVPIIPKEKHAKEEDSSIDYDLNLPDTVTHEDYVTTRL
Nature of the data set: TRP Family FLIPR Assay, TRPC4. Type of data set: cell-based. As to conditions: HEK293 cells. The procedure: as §1, §2, §3, §4

For data set [3], the system named is Hepatocytes. Put plainly: Hepatocytes predicted clearance, human.
The target in data set [4] is T3, TRPM2 channels (Homo sapiens, UniProt O94759).
T3 construct: expressed in transfected cells; host or cells: HEK293 (transient)
T3 sequence (O94759 whole entry): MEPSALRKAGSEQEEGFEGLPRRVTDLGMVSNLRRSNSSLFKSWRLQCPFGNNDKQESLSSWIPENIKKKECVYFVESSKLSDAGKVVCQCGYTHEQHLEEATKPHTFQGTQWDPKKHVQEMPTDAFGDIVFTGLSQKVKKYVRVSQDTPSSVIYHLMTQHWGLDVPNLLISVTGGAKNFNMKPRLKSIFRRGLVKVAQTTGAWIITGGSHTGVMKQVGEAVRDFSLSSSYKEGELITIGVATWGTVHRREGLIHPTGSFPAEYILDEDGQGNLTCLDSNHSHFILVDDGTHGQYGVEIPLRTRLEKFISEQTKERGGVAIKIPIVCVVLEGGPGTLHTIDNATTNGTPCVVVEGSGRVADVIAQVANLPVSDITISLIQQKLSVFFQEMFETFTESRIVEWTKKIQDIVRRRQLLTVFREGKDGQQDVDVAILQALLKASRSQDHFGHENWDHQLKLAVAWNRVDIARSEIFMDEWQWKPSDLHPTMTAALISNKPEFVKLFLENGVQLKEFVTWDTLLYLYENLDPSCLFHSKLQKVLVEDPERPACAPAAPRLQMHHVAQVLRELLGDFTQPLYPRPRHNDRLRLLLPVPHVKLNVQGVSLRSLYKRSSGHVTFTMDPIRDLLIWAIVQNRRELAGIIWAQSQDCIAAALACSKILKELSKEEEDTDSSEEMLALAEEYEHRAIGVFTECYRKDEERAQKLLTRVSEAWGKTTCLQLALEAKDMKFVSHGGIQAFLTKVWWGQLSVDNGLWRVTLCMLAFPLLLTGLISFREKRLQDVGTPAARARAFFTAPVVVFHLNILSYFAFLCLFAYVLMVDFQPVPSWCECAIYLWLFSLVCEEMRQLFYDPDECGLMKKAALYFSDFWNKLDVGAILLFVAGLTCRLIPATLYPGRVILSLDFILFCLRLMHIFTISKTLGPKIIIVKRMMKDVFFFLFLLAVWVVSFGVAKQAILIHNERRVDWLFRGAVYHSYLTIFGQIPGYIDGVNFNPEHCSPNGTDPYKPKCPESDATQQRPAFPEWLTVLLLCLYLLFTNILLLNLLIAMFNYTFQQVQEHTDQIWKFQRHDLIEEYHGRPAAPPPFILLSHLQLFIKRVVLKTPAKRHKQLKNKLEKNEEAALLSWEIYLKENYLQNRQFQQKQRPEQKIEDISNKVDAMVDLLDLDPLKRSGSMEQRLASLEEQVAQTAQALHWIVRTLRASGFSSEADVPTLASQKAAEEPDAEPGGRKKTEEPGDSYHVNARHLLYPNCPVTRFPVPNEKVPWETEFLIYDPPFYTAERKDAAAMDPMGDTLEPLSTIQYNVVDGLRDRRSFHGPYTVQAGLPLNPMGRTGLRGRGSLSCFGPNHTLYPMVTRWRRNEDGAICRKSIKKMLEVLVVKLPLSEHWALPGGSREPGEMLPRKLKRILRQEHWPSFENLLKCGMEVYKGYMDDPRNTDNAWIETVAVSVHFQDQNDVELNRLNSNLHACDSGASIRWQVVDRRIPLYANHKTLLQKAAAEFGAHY
Nature of the data set: TRP Family FLIPR Assay, TRPM2. As to conditions: HEK293 cells (transient). It counts as cell-based. As for the experimental part: as §1, §2, §3, §4

T1 sequence (Q8NER1 whole entry): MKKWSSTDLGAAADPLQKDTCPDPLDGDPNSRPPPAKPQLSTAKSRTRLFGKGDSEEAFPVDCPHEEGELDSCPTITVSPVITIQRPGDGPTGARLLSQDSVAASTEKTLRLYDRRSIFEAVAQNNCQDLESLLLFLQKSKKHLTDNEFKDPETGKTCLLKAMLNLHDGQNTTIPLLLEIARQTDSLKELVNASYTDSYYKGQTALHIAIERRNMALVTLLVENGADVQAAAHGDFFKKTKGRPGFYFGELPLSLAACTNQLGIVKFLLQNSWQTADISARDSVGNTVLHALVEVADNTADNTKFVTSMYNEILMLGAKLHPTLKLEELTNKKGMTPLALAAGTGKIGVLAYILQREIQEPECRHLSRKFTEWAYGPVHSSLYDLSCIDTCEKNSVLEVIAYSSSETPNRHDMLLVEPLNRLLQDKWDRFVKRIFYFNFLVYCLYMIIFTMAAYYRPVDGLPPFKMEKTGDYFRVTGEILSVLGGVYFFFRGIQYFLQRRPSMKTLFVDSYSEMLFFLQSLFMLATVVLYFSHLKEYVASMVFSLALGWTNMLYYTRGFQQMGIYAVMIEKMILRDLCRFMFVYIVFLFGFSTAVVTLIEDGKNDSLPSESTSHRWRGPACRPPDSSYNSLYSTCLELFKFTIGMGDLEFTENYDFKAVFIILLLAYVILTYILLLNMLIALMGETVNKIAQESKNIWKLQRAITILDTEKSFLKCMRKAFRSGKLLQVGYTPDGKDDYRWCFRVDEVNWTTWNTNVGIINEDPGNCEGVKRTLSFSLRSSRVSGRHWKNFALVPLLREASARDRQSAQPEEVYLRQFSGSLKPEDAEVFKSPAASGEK

The term EC50 denotes the midpoint of the concentration-response curve. In general, IC50 refers to the concentration that inhibits the measured activity by half. As to `CC(C)(O)c1cnc(N2C[C@@]3(CC[C@@H](F)[C@](C)(Cn4cnc5ccc(C#N)cc54)C3)OC2=O)cn1` (single isomer, unassigned) [Example 5], the EC50 in data set [1] (agonist mode, vs EMAX of capsaicin 1 μM, read-out: EC50 hTRPV1) is above 10 µM; in data set [2] (agonist mode, vs EMAX of (−)-Englerin A 30 μM, read-out: EC50 hTRPC4) it was above 10 µM; in data set [4] (agonist mode, vs EMAX of H2O2 333 μM, read-out: EC50 hTRPM2), above 10 µM. Further, the IC50 is above 10 µM in data set [1] (antagonist mode, activated with capsaicin 0.1 μM, 0.003-10 μM, read-out: IC50 hTRPV1); above 1 µM in data set [2] (antagonist mode, activated with 0.5 μM (−)-Englerin A, 0.003-10 μM, read-out: IC50 hTRPC4); above 10 µM in data set [4] (antagonist mode, activated with 300 μM H2O2, 0.003-10 μM, read-out: IC50 hTRPM2). In addition, in data set [3], the “Hepatocytes predicted clearance in human” value was below 0.17 mL/min/kg.
